Assays:
[1] = molecular target: low Km cAMP PDE, rat brain; assay: cAMP PDE inhibition, low Km enzyme from rat brain; type: biochemical; conditions: cAMP concentration 0.14 μM; for IC50: read-out: 50% inhibitory value (I50)
Procedure: (§1) The inhibitory activity of the compounds of the invention (or of compositions, e.g. culture broths, containing them) may be assayed by the method of Pichard and Thun [Journal of Biological Chemistry, 251, 5726-5737 (1976)], using a crude enzyme solution derived from rat brains as the cAMP PDE. In this method, ^14 C-labelled cAMP is used as the substrate and is reacted at 30° C. for 20 minutes with 2-5 μl of the compound or composition under test, 20 μl of a snake venom and 40 μl of the crude enzyme solution in a 0.2M tris-HCl buffer (pH 8.0). The tris-HCl buffer is a mixture of tris(hydroxymethyl)aminomethane and hydrochloric acid. After completion of the reaction, the reaction mixture is treated with an Amberlite (Trade Mark) IRP-58 resin. From the residual radioactivity of the adenosine in the product, the inhibitory activity of the compound or composition against the cAMP PDE can be calculated as a percentage.
(§2) The inhibitory activity of griseolic acid against cAMP PDE in terms of its 50% inhibitory value (I50) are shown in Table 5 against cAMP PDE from a variety of sources having either a high or a low Michaelis constant (Km). The results are reported as μmoles (μM).

[2] = molecular target: high Km cAMP PDE, rat brain; assay: cAMP PDE inhibition, high Km enzyme from rat brain; type: biochemical; conditions: cAMP concentration 100 μM, read-out: 50% inhibitory value (I50)
Procedure: as §1, §2

[3] = molecular target: low Km cAMP PDE, rat heart; assay: cAMP PDE inhibition, low Km enzyme from rat heart; type: biochemical; conditions: cAMP concentration 0.14 μM, read-out: 50% inhibitory value (I50)
Procedure: as §1, §2

[4] = molecular target: high Km cAMP PDE, rat heart; assay: cAMP PDE inhibition, high Km enzyme from rat heart; type: biochemical; conditions: cAMP concentration 100 μM, read-out: 50% inhibitory value (I50)
Procedure: as §1, §2

[5] = test system: low Km cAMP PDE, rat aorta; assay: cAMP PDE inhibition, low Km enzyme from rat aorta; type: biochemical; conditions: cAMP concentration 0.14 μM, read-out: 50% inhibitory value (I50)
Procedure: as §1, §2

[6] = test system: high Km cAMP PDE, rat aorta; assay: cAMP PDE inhibition, high Km enzyme from rat aorta; type: biochemical; conditions: cAMP concentration 100 μM, read-out: 50% inhibitory value (I50)
Procedure: as §1, §2

[7] = molecular target: T1, low Km cAMP PDE, rat platelets (Rattus norvegicus, UniProt Q62865); assay: cAMP PDE inhibition, low Km enzyme from rat platelets; type: biochemical; conditions: cAMP concentration 0.14 μM, read-out: 50% inhibitory value (I50)
T1 construct: from tissue; host or cells: rat platelets
T1 sequence (Q62865 1-1141): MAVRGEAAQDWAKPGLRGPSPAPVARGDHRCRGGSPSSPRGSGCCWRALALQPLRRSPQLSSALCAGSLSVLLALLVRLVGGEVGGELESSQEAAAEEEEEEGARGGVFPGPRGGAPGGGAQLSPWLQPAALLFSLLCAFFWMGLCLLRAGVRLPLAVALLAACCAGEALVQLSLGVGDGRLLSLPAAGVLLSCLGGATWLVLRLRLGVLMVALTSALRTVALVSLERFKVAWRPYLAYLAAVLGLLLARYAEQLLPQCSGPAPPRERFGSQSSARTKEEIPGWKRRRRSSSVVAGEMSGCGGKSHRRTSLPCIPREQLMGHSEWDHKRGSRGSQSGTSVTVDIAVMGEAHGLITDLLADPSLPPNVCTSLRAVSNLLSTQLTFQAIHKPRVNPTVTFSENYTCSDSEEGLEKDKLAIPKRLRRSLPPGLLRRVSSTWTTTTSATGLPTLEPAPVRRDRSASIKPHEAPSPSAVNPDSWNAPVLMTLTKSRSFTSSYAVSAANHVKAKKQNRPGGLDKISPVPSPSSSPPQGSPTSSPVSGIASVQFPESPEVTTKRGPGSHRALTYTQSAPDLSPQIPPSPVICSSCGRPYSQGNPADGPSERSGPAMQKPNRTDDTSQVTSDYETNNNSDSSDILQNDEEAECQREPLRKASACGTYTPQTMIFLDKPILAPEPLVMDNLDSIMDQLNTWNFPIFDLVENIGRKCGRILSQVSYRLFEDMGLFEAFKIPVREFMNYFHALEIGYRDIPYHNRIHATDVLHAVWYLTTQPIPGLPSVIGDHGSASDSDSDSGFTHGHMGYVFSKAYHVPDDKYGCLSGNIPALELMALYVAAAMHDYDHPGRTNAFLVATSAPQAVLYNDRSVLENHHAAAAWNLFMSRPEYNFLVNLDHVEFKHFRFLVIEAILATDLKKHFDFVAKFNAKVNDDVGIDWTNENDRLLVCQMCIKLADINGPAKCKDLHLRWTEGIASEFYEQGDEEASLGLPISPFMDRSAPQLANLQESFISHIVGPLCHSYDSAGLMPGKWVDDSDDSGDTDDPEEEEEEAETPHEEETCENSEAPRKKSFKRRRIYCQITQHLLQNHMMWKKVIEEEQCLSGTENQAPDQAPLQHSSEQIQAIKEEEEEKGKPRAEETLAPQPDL
Procedure: as §1, §2

[8] = test system: high Km cAMP PDE, rat platelets; assay: cAMP PDE inhibition, high Km enzyme from rat platelets; type: biochemical; conditions: cAMP concentration 100 μM, read-out: 50% inhibitory value (I50)
Procedure: as §1, §2

[9] = molecular target: low Km cAMP PDE, rat kidney; assay: cAMP PDE inhibition, low Km enzyme from rat kidney; type: biochemical; conditions: cAMP concentration 0.14 μM, read-out: 50% inhibitory value (I50)
Procedure: as §1, §2

[10] = molecular target: high Km cAMP PDE, rat kidney; assay: cAMP PDE inhibition, high Km enzyme from rat kidney; type: biochemical; conditions: cAMP concentration 100 μM, read-out: 50% inhibitory value (I50)
Procedure: as §1, §2

Hela S-3 strain cells = assay: basic tests on cytotoxicity; type: cell-based, mouse; conditions: even at concentrations of 100 μg/ml
[11] = water solubility (qualitative); type: physicochemical

Row | SMILES | IC50 [1] [nM] | inhibitory activity relative to papaverine (times stronger) [1] | IC50 [2] [nM] | IC50 [3] [nM] | IC50 [4] [nM] | IC50 [5] [nM] | IC50 [6] [nM] | IC50 [7] [nM] | IC50 [8] [nM] | IC50 [9] [nM] | IC50 [10] [nM] | inhibition of cell growth (Hela S-3 strain cells) | water solubility [11]
1 | COc1ccc(Cc2nccc3cc(OC)c(OC)cc23)cc1OC [Papaverine, reference compound] | 3500 |  |  |  |  |  |  |  |  |  |  |  | 
2 | Nc1ncnc2c1ncn2C1OC2=C(C(=O)O)C(C(O)C(=O)O)OC2C1O (centres unmarked) [griseolic acid] | 160 | about 20 times | 800 | 36 | 340 | 31 | 510 | 41 | 8000 | 120 | 580 | no inhibition of cell growth | water-soluble

Reference: US4460765A, “Enzyme inhibitor produced by cultivation of streptomyces microorganisms” (Sankyo Company Limited, priority 1979, dated 1984)
